Tests used:
[1] = test system: gintonin-induced CaCC currents; experiment: Effects of PLC inhibitor, IP3 receptor antagonist or Ca2+ chelator on crude gintonin-mediated CaCC activation in Xenopus oocytes; type: cell-based, Xenopus laevis; settings: for crude gintonin-induced CaCC currents, % of the control: in presence of the PLC inhibitor or inactive analog
Method: Two-electrode voltage-clamp recordings were obtained from individual oocytes placed in a small Plexiglas net chamber (0.5 ml). Electrophysiological experiments were performed at room temperature using microelectrodes filled with 3 M KCl (resistance of 0.2-0.7 MΩ) and an Oocyte Clamp amplifier (OC-725C; Warner Instrument, Hamden, Conn.), followed by recording CaCC at −80 mV holding potential.
For this, the effect of the IP3 receptor antagonist, membrane permeable 2-aminoethxydiphenyl borate (2-APB), on gintonin-induced CaCC activation was examined.

[2] = test system: gintonin-mediated elevation of [Ca^2+]i in mouse EAT cells; experiment: Effects of active or inactive PLC inhibitors on gintonin-mediated [Ca2+]i elevation in mouse EAT cells; type: cell-based; settings: for effect on the action of gintonin on [Ca^2+]i: mouse EAT cells, irrespective of the presence of extracellular Ca^2+; for effect on gintonin (100 ng/mL)-mediated elevation of [Ca^2+]i: pretreatment 10 μM, Ca^2+ buffer (1.5 mM Ca^2+) and Ca^2+ free buffer (0.2 mM EGTA), n=4-5/group
Method: Data are represented as means ±SEM (n=4-5/group).
[Ca^2+]i was estimated in fura 2-loaded cells in suspension using an RF-5300PC intracellular ion measurement system (Shimadzu Corporation, Japan). The fura 2-AM loaded cells were diluted with an experimental medium to a final density of 2˜4×10^6 cells/mL and transferred to polystyrene cuvettes (Elkay Ultra-VU). The cells were stirred using Teflon-coated magnets, and the cuvette housing was thermostatically controlled at 37° C. The excitation wavelengths were alternated between 340 and 380 nm under computer control. Emission was detected at 510 nm. Excitation and emission slit widths were 5 nm. Background correction was performed as described by Jorgensen et al. Digitonin and EGTA were used as concentration adjustment reagents to make a condition in which fura 2 completely combines with and disassociates from Ca^2+.

SMILES | inward CaCC currents induced by gintonin after addition of 2-APB ([1]; P<0.01 vs control current) [μA] | effect on gintonin-induced inward CaCC currents ([1]; addition of 2-APB) | crude gintonin-induced CaCC currents, % of the control [1] [%] | effect on the action of gintonin on [Ca^2+]i [2] | effect on gintonin (100 ng/mL)-mediated elevation of [Ca^2+]i [2] | effect on gintonin-mediated CaCC activation ([1]; 10 μM final)
NCCOB(c1ccccc1)c1ccccc1 [2-APB, 2-aminoethxydiphenyl borate] | 0.03±0.01 | almost completely abrogated |  |  |  | 
COc1ccc2c(c1)CC[C@@H]1[C@@H]2CC[C@]2(C)[C@@H](NCCCCCCN3C(=O)CCC3=O)CC[C@@H]12 [U-73343] |  |  | 97.2±0.2 | not | not | 
COc1ccc2c(c1)CC[C@@H]1[C@@H]2CC[C@]2(C)[C@@H](NCCCCCCN3C(=O)C=CC3=O)CC[C@@H]12 [U-73122] |  |  | 3.9±0.3 | almost abrogate | blocked | 
CC(=O)OCOC(=O)CN(CC(=O)OCOC(C)=O)c1ccccc1OCCOc1ccccc1N(CC(=O)OCOC(C)=O)CC(=O)OCOC(C)=O [BAPTA-AM, 1,2-bis-(2-aminophenoxy)ethane-N,N,N′,N′-tetraacetic acid acetoxymethyl ester] |  |  |  |  |  | almost extinguished

Source: US8563052B2, “Method for preparing gintonin, which is a novel glycolipoproetin from panax ginseng, and gintonin, which is a novel glycolipoprotein, prepared by the method” (Konkuk University Industrial Cooperation Corp., priority 2009, dated 2013)
